Test results as given in patent publication US9452117B2 (priority 2011, dated 2016).

Experiments:
Large^myd mice = test: Body weight change and muscle weight of Large^myd mice; type: in vivo; details: 40 mg/kg body weight daily, not on weekends, 3 months
Experimental: The body weight change and muscle weight of treated Large^myd mice was also evaluated. Large^myd mice (at age of 10 weeks, male:female=1:1) received Compound D2 (40 mg/kg body weight) daily. No treatment on weekends. […] The muscle weight gain for the TA and EDL muscles are summarized below.

human skin cells = type: cell-based
[1] = system: Human skeletal muscle cells; type: cell-based

## CCCC(CCC)CO[N+](=O)[O-] [Compound D2, 2-propylpentyl nitrate]
Large^myd mice; control 0.015 ± 0.001
  EDL muscle mass: 0.017 ± 0.001 gram
Large^myd mice; control 0.048 ± 0.004
  TA muscle mass: 0.054 ± 0.004 gram
Large^myd mice; control 2%
  Body weight increase: 13%;
Human skin cells
  calcification (calcium-45 accumulation): significant reduction
[1]
  calcification (calcium-45 accumulation): reduce calcification
